{"source": "patent US6528496B1", "about": "“Compositions treating, preventing or reducing elevated metabolic levels” (priority 1992, dated 2003)", "key": {"[1]": {"system": "serum MMA and HC", "experiment": "Parenteral B12 treatment of geriatric nursing home patients with serum B12<300 pg/ml, response of serum MMA and HC (Example 4)", "type": "in vivo, human", "experimental": "A study was conducted with 212 elderly nursing home patients to determine serum B12, folate, MMA, and HC levels (Table 3). The significance of the results shown in Table 3 marked with “**” are as described for Table 2 (Example 3). The control group consisted of 100 subjects between the ages of 17-65 years."}, "[2]": {"system": "serum MMA and HC", "experiment": "Parenteral B12 treatment of geriatric outpatients with low and low/normal serum B12, response of serum MMA and HC (Example 3)", "type": "in vivo, human", "conditions": "weekly injections of 1.0 mg B12", "experimental": "A study was conducted with 152 elderly outpatient subjects to measure the prevalence of B12 deficiency in geriatric outpatients as determined by both low serum B12 levels and elevations of MMA and HC, and to determine the response to B12 treatment. Blood samples were obtained on 152 consecutive geriatric outpatients, ages 65-99. Control values were determined from 100 subjects, ages 17-65. The significance of the results marked as “**” in Table 2 are as follows: B12 levels of<200 pg/ml; folate<3.8 ng/ml; homocysteine>16.2 uM; MMA>271 nM; CT>342 nM; and 2-MCA>228 nM. Serum MMA, HC, CT, and 2-MCA levels were measured as described in Example 1. Serum B12 and folate were measured as described in Example 1 using a Corning Immophase kit (CIBA-Corning, Medfield, Mass.) with the normal range defined as 200-800 pg/ml for B12 and 3.8 ng/ml for folate. After evaluation, patients received weekly parenteral cyanocobalamin injections (1,000 ug IM) for 8 weeks, followed by monthly injections. Repeat laboratory and clinical assessments were administered at 8 weeks and at 6 months.\nPatients with low and low/normal serum B12 levels were treated with weekly injections of 1.0 mg B12. […] It appears that the true prevalence of previously unrecognized B12 deficiency in this elderly population was at least 14.5%."}, "[3]": {"conditions": "2.0 mg oral dose, in the absence of intrinsic factor; cited from earlier work"}, "[4]": {"conditions": "parenteral 1 mg per week for 8 weeks, nursing home patients with serum B12<300 pg/ml"}}, "note": "Entries after “also recorded” stand apart in the source; their conditions may differ.", "data": [{"substance": "cyanocobalamin [B12]", "values": [{"measurement": "effect on elevated serum HC levels (FIG. 10)", "setting": "[1]; [4]", "result": "fall to or towards normal"}, {"measurement": "effect on elevated serum MMA levels (FIG. 9)", "setting": "[1]; [4]", "result": "fall to or towards normal"}, {"measurement": "response of elevated metabolite levels to B12 treatment", "setting": "[1]; some of the nursing home patients with elevated metabolite levels", "result": "did not fully respond"}, {"measurement": "effect on elevated metabolite levels (serum MMA and HC, FIGS. 4 and 5)", "setting": "[2]", "result": "fall to or towards normal; also recorded: did not fully respond"}, {"measurement": "fraction of oral dose absorbed by diffusion", "setting": "[3]", "result": "approximately 1%"}]}]}
